Measured values published in ChEMBL document CHEMBL1201862, “PubChem BioAssay data set” (2004).
Calls of active or inactive are those of the source.

Key:
[1] = molecular target: DNA dC->dU-editing enzyme APOBEC-3A (Homo sapiens, UniProt P31941); assay: Dose Response confirmation of small molecule APOBEC3A DNA Deaminase Inhibitors via a fluorescence-based single-stranded DNA deaminase assay. [Related pubchem assays (depositor defined):AID493011, AID493024]; format: functional
[2] = molecular target: DNA dC->dU-editing enzyme APOBEC-3G (Homo sapiens, UniProt Q9HC16); format: functional;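 further: Dose-response counterscreen measuring inhibition of APOBEC3G DNA deaminase activity, run while confirming APOBEC3A inhibitors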
Chain of DNA dC->dU-editing enzyme APOBEC-3G (Q9HC16 whole entry): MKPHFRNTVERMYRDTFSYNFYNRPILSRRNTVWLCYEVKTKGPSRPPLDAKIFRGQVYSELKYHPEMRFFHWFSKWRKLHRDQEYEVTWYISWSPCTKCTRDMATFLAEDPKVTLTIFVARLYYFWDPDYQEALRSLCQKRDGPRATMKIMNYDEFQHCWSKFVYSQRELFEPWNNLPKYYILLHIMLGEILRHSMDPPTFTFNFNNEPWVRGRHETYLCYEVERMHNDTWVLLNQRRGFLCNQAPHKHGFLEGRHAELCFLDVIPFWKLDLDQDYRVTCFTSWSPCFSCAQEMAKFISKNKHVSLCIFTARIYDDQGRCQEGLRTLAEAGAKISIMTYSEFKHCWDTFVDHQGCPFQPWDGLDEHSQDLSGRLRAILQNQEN

[3] = molecular target: T1, High affinity choline transporter 1 (Homo sapiens, UniProt Q9GZV3); assay: CHT inhibitors, dose response, cell-based, 5-point CRC, membrane potential dye (AID 504840); format: functional
T1 sequence (Q9GZV3 whole entry): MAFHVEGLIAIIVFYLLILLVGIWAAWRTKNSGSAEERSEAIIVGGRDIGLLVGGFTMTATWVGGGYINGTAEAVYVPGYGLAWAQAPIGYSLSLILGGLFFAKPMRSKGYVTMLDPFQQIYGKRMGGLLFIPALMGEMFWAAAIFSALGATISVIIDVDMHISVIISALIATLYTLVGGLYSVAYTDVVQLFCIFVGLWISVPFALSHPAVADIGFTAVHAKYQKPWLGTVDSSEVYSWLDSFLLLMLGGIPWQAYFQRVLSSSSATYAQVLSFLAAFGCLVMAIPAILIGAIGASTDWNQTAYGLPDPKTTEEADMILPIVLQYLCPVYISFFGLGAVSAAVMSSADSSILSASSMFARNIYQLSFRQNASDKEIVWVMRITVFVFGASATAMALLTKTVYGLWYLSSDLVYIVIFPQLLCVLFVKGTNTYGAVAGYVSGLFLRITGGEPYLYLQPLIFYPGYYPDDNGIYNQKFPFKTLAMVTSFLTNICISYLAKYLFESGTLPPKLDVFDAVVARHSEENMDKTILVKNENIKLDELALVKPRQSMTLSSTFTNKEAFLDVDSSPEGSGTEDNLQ

[4] = molecular target: T2, Voltage-gated N-type calcium channel alpha-1B subunit/Amyloid beta A4 precursor protein-binding family A member 1 (Homo sapiens, UniProt Q00975+Q02410); format: protein assay
T2 sequence (Q00975 whole entry): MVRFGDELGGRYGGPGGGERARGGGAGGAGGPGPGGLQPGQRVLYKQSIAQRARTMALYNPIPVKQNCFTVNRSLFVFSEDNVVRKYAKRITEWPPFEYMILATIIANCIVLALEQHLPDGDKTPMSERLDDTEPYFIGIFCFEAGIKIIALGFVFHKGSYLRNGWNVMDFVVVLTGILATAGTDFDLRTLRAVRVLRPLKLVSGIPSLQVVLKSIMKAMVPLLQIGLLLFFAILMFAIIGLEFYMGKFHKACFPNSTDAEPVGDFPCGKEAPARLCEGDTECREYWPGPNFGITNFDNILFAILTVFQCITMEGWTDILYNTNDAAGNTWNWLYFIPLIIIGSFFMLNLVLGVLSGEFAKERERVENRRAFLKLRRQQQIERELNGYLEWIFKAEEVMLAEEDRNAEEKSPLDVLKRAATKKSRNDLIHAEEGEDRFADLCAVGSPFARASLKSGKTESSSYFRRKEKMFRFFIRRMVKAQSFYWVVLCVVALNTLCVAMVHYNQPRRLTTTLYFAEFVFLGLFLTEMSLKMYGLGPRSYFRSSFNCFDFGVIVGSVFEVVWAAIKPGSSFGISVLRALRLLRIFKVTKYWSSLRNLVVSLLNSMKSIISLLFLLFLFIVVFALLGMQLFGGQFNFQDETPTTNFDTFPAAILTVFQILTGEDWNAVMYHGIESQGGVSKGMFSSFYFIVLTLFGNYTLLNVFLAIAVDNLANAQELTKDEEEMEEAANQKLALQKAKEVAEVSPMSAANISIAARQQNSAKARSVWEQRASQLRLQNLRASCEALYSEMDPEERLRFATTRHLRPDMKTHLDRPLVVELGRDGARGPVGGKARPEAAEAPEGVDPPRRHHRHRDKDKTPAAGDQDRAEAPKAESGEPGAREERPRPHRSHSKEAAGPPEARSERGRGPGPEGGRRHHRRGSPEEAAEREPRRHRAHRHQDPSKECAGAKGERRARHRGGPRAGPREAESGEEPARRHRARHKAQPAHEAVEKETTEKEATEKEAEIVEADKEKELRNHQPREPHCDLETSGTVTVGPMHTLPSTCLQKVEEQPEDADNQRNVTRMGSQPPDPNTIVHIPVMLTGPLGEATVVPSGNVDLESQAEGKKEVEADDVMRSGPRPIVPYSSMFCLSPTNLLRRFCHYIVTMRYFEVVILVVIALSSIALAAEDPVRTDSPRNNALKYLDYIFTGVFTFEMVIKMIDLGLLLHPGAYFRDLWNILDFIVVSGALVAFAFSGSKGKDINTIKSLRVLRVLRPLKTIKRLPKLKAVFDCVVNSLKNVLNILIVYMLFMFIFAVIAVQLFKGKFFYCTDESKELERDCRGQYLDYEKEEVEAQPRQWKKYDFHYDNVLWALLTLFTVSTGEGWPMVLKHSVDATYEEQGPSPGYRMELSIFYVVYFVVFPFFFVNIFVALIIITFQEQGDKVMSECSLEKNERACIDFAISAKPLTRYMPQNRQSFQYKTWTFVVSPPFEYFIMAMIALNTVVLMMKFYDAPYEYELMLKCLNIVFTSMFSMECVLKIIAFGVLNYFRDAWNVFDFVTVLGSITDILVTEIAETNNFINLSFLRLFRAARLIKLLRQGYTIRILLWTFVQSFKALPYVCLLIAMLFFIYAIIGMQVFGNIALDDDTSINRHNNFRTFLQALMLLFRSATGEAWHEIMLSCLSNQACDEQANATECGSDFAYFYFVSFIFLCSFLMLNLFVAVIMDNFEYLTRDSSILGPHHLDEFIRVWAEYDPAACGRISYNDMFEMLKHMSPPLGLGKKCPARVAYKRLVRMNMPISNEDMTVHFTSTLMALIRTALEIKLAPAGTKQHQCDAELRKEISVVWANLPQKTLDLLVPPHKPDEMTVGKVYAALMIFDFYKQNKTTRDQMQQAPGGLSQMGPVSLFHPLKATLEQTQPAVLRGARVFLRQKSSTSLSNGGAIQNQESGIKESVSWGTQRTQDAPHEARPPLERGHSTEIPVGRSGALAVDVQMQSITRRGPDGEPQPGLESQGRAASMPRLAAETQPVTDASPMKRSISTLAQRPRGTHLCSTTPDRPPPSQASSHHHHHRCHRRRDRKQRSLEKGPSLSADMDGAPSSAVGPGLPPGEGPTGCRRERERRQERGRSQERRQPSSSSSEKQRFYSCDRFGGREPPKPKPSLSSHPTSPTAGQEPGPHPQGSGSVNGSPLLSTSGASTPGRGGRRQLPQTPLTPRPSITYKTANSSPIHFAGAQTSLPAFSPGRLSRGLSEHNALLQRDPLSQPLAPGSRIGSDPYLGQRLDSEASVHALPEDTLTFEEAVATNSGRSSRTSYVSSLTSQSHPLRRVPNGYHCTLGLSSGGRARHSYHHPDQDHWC
T2 sequence (Q02410 whole entry): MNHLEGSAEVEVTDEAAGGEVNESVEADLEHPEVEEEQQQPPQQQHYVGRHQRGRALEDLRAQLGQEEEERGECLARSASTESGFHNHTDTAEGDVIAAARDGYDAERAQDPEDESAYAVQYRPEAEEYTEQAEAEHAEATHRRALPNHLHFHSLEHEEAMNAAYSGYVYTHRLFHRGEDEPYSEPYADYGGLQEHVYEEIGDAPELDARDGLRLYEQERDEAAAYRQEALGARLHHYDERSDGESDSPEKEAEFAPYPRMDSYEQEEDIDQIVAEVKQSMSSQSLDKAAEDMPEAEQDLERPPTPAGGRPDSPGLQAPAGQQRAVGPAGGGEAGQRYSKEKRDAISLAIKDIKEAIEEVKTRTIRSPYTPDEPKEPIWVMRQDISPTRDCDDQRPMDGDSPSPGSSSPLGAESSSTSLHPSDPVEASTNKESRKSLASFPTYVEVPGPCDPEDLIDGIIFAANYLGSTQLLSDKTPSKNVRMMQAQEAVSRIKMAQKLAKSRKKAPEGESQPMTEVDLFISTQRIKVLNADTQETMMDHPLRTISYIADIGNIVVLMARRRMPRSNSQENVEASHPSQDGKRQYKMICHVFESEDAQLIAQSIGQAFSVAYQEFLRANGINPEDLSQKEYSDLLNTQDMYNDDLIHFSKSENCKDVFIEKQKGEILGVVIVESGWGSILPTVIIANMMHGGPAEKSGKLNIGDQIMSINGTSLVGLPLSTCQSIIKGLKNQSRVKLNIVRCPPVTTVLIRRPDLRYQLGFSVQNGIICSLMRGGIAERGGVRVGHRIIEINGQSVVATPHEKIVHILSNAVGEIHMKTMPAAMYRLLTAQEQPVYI

[5] = molecular target: T2, Voltage-gated N-type calcium channel alpha-1B subunit/Amyloid beta A4 precursor protein-binding family A member 1; format: protein assay; remark: listed apart in the source
[6] = molecular target: Intestinal-type alkaline phosphatase (Homo sapiens, UniProt P09923); assay: human intestinal alkaline phosphatase activators, dose response, biochemical, luminescence, uHTS hits (AID 463120); format: functional
Chain of Intestinal-type alkaline phosphatase (P09923 whole entry): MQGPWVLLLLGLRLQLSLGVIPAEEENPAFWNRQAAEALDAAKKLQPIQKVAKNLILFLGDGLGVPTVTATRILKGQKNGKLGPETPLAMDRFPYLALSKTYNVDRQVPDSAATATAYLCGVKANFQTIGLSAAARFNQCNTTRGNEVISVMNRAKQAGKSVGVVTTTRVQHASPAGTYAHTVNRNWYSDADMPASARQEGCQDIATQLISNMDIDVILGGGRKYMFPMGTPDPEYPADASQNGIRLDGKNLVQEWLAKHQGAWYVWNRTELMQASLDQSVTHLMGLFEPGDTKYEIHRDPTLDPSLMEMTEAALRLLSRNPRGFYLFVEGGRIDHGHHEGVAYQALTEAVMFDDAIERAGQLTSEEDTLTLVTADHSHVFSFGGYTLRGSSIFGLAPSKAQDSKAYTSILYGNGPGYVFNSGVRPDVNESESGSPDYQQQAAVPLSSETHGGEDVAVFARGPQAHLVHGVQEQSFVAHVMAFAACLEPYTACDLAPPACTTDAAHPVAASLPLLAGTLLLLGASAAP

Chain of DNA dC->dU-editing enzyme APOBEC-3A (P31941 whole entry): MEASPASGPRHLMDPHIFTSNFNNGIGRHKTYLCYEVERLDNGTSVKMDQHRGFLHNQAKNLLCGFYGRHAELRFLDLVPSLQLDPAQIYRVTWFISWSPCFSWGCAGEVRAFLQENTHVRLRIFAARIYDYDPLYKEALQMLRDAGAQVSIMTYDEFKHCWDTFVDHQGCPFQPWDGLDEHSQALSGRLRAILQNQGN

| IC50 [4] | IC50 [5] | EC50 [6] | SMILES | IC50 [1] | IC50 [2] | IC50 [3] |
| --- | --- | --- | --- | --- | --- | --- |
| – | – | – | CCOCc1cnc(C)nc1NCC(=O)c1c(C)[nH]c2ccc(OC)cc12 | 2.59 µM (active) | 5.53 µM (active) | – |
| – | – | – | CC(=O)OCCCCCCCCCCC[N+]1(C)CCCCC1 | 2.03 µM (active) | 2.17 µM (active) | 14.1 µM (active) |
| 20.6 µM (active) | > 50 µM (inactive) | > 100 µM (inactive) | COc1cccc(/C=N/Nc2nn3cnnc3c3ccccc23)c1O | – | – | – |
